# According to the supplement of paper PMC10307832:
# Assays:
# Experiment in all cases: relative viability (nuclei count vs DMSO), 5 days (fraction); higher = more cells survive
# BX 795 + Trametinib = compound: O=C(NCCCNc1nc(Nc2cccc(NC(=O)N3CCCC3)c2)ncc1I)c1cccs1 [BX 795] + CC(=O)Nc1cccc(-n2c(=O)n(C3CC3)c(=O)c3c(Nc4ccc(I)cc4F)n(C)c(=O)c(C)c32)c1 [Trametinib] (partner 0.02 µM)
# Outline: (§1)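 Lung cancer cell lines were pin-tool dosed in 1536-well plates on the day after seeding, with either a lone drug or a fixed anchor-drug dose plus five library-drug doses (not always all listed) in √10 steps. Nuclei were counted on 4× images after 5 days. Relative viability is the ratio of treated-well to vehicle-well nuclei counts, with each value a median of duplicate plates.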
# BX 795 + Navitoclax = compound: O=C(NCCCNc1nc(Nc2cccc(NC(=O)N3CCCC3)c2)ncc1I)c1cccs1 [BX 795] + CC1(C)CCC(c2ccc(Cl)cc2)=C(CN2CCN(c3ccc(C(=O)NS(=O)(=O)c4ccc(N[C@H](CCN5CCOCC5)CSc5ccccc5)c(S(=O)(=O)C(F)(F)F)c4)cc3)CC2)C1 [Navitoclax] (partner 0.5 µM)
# Outline: as §1
# BX 795 + Luminespib = compound: O=C(NCCCNc1nc(Nc2cccc(NC(=O)N3CCCC3)c2)ncc1I)c1cccs1 [BX 795] + CCNC(=O)c1noc(-c2cc(C(C)C)c(O)cc2O)c1-c1ccc(CN2CCOCC2)cc1 [Luminespib] (partner 0.01 µM)
# Outline: as §1
# BX 795 + Pictilisib = compound: O=C(NCCCNc1nc(Nc2cccc(NC(=O)N3CCCC3)c2)ncc1I)c1cccs1 [BX 795] + CS(=O)(=O)N1CCN(Cc2cc3nc(-c4cccc5[nH]ncc45)nc(N4CCOCC4)c3s2)CC1 [Pictilisib] (partner 1 µM)
# Outline: as §1
# BX 795 + Crizotinib = compound: O=C(NCCCNc1nc(Nc2cccc(NC(=O)N3CCCC3)c2)ncc1I)c1cccs1 [BX 795] + C[C@@H](Oc1cc(-c2cnn(C3CCNCC3)c2)cnc1N)c1c(Cl)ccc(F)c1Cl [Crizotinib] (partner 1 µM)
# Outline: as §1
Cell Line,relative viability (BX 795 + Trametinib; first compound 0.04 µM),relative viability (BX 795 + Trametinib; first compound 0.1265 µM),relative viability (BX 795 + Trametinib; first compound 0.4 µM),relative viability (BX 795 + Trametinib; first compound 1.265 µM),relative viability (BX 795 + Navitoclax; first compound 0.04 µM),relative viability (BX 795 + Navitoclax; first compound 0.1265 µM),relative viability (BX 795 + Navitoclax; first compound 0.4 µM),relative viability (BX 795 + Navitoclax; first compound 1.265 µM),relative viability (BX 795 + Luminespib; first compound 0.1265 µM),relative viability (BX 795 + Luminespib; first compound 0.4 µM),relative viability (BX 795 + Luminespib; first compound 1.265 µM),relative viability (BX 795 + Pictilisib; first compound 0.04 µM),relative viability (BX 795 + Pictilisib; first compound 0.1265 µM),relative viability (BX 795 + Pictilisib; first compound 0.4 µM),relative viability (BX 795 + Pictilisib; first compound 1.265 µM),relative viability (BX 795 + Crizotinib; first compound 0.04 µM),relative viability (BX 795 + Crizotinib; first compound 0.1265 µM),relative viability (BX 795 + Crizotinib; first compound 0.4 µM),relative viability (BX 795 + Crizotinib; first compound 1.265 µM),relative viability (BX 795 + Luminespib; first compound 0.04 µM)
NCI-H23,0.341,0.338,0.368,0.312,0.983,0.916,0.672,0.355,0.207,0.216,0.211,0.515,0.504,0.41,0.391,0.459,0.503,0.374,0.257,
NCI-H322M,0.5,0.487,0.6,0.562,1.41,1.19,1.35,1.25,0.915,0.266,1.03,0.627,0.521,0.537,0.527,0.906,0.959,0.711,0.912,0.589
NCI-H441,0.545,0.4,0.596,0.335,0.867,0.429,1.03,0.564,0.297,0.333,0.278,0.609,0.503,0.666,0.37,0.874,0.695,0.878,0.508,0.323
NCI-H460,0.265,0.138,0.13,0.12,1.1,1.25,1.16,0.973,0.0327,0.0422,0.0269,0.361,0.418,0.374,0.261,0.859,1.17,0.684,0.192,0.0385
NCI-H520,0.568,0.723,0.593,0.362,0.736,1.12,0.95,0.535,0.2,0.225,0.277,0.303,0.321,0.279,0.28,0.662,0.571,0.443,0.249,0.211
NCI-H596,0.807,0.757,0.932,0.776,1.04,1.05,1.16,0.945,1,1.14,0.764,0.449,0.38,0.417,0.431,1.08,1.02,1.03,0.874,1.21
NCI-H647,0.447,0.504,0.448,0.344,,1.08,1.07,1.01,0.134,0.104,0.105,,0.363,0.438,0.343,1.08,1.17,0.955,0.242,0.149
NCI-H727,0.377,0.38,0.36,0.4,0.45,0.535,0.471,0.37,0.257,0.29,0.389,0.498,0.643,0.31,0.315,0.868,0.986,0.634,0.492,0.345
NCI-H838,0.5,0.473,0.397,0.302,1.05,1.1,1.02,0.519,0.292,0.226,0.181,0.449,0.425,0.382,0.326,0.781,0.689,0.628,0.356,0.255
NCI-H1355,0.427,0.344,0.44,0.362,0.974,0.937,1.09,0.626,0.787,0.874,0.579,0.451,0.423,0.436,0.424,1.03,0.937,1.1,0.961,0.721
NCI-H1437,0.496,0.605,0.516,0.538,1.08,1.06,1.15,0.94,1.14,1.17,1.12,0.488,0.411,0.417,0.55,0.871,0.96,1.03,0.562,1.13
NCI-H1650,0.6,0.493,0.551,0.504,1.17,1.12,1.41,0.649,0.191,0.206,0.189,0.698,0.576,0.517,0.498,0.98,0.969,0.786,0.591,0.212
NCI-H1651,0.847,0.87,0.879,0.824,1,1.13,1.04,0.932,0.987,0.78,0.511,0.569,0.617,0.615,0.645,0.945,0.948,0.852,0.853,0.982
NCI-H1666,0.856,0.884,0.974,0.802,1.12,1.31,1.14,0.717,1.04,1.07,0.893,0.364,0.516,0.449,0.273,1.16,1.05,1.13,0.769,1
NCI-H1734,0.714,0.651,0.69,0.562,0.882,0.945,0.828,0.618,0.209,0.154,0.149,0.463,0.471,0.411,0.368,0.765,0.727,0.64,0.432,0.173
NCI-H1755,0.849,0.763,0.793,0.665,1.07,0.978,1.04,0.671,0.412,0.283,0.388,0.442,0.418,0.35,0.305,0.935,0.908,0.767,0.516,0.635
